Assay [1] concerns Helicobacter pylori standard strains ATCC 43504, ATCC 43629, ATCC 43570 and clinically separated strains. Nature of the assay: Anti-Helicobacter pylori activity (MIC), standard and clinically separated strains, Pharmacological Test Example 2. The class given is cell-based. The procedure:
For the bacterium Helicobacter pylori, standard strains ATCC 43504, ATCC 43629 and ATCC 43570 were used to perform in vitro tests in Columbia agar medium. The bacteria were cultured at 37° C. and pH 7.0 for 3 days. On the 4th day, the minimum growth inhibitory concentration (MIC, μg/ml) was determined. Each of the specimens was dissolved in a 1% DMSO solution. Furthermore, amoxicillin and clarithromycin were used as control drugs of antibacterial substance. Further, the compound described in the article of Thomas C. Kuehler (J. Med.

In assay [2] the test system is Helicobacter pylori bacteria (ATCC 43504). Nature of the assay: Antiulcer action and bacteria eradicating action in Helicobacter pylori-infected Mongolian gerbils. It counts as in vivo. To be noted: for Number of Bacteria (average) (log CFU): gastric mucosa. The procedure: Mongolian gerbils were experimentally infected with Helicobacter pylori bacteria, and the antiulcer action and the Helicobacter pylori bacteria eradicating action of the compounds of the present invention were tested.
Male Mongolian gerbils (30 to 40 g), five animals in each group, were orally inoculated with Helicobacter pylori bacteria (ATCC 43504) at 1.6×10^7 CFU/0.5 ml/mouse, and bred for one week, and then drug was administered two times a day for two weeks. Thereafter, the […] were bred for three weeks, and then the rats were fasted for 18 hours and subjected to abdominal section, followed by autopsy. The severity of gastric ulcer, the number of Helicobacter pylori bacteria in the gastric mucosa, and the antibody titer were measured.

Assay [3] deals with Staphylococcus aureus, MRSA (ATCC 33591). Nature of the assay: Antibacterial test (MIC), Gram-positive bacteria. It counts as cell-based. The text has this: (§1) As for the Gram-negative bacteria, E. coli (ATCC 10536, ATCC 25922), Klebsiella pneumonia (ATCC 10031), Proteus vulgaris (ATCC 13315), Pseudomonas aeruginosa (ATCC 9027), and Salmonella typhimurium (ATCC 13311) were used, and as for the Gram-positive bacteria, Staphylococcus aureus, MRSA (ATCC 33591), Staphylococcus epidermidis (ATCC 12228), Streptococcus pneumonia (ATCC 6301), Mycobacterium ranae (ATCC 110), and Enterococcus faecalis (VRE, ATCC 51575) were used. The various bacteria were cultured at 37° C. for 20 to 48 hours by conventional methods, and the minimum growth inhibitory concentration (MIC, μg/ml) was determined. Each of the specimens was dissolved in a 1% DMSO solution. Furthermore, amoxicillin, clarithromycin and gentamycin were used as control drugs of antibacterial substance.

Assay [4] has as its system Streptococcus pneumonia (ATCC 6301). Nature of the assay: Antibacterial test (MIC), Gram-positive bacteria. To be noted: Streptococcus pneumoniae, ATCC6301. It counts as cell-based.
Text: as §1

Assay [5] has as its system Enterococcus faecalis (VRE, ATCC 51575). Nature of the assay: Antibacterial test (MIC), Gram-positive bacteria. The class given is cell-based.
Text: as §1

The subject of assay [6] is clinically separated clarithromycin-resistant strains and amoxicillin-insensitive strains of Helicobacter pylori. Nature of the assay: Antibacterial potency (MIC) against clarithromycin-resistant and amoxicillin-insensitive strains, Pharmacological Test Example 3. The class given is cell-based. As for the experimental part: A test was conducted on the antibacterial potency of the compounds of the present invention against the clarithromycin-resistant strains and amoxicillin-insensitive strains of the bacterium Helicobacter pylori.
A test was conducted on the antibacterial potency of the compounds of the present invention, using clinically separated clarithromycin-resistant strains and amoxicillin-insensitive strains of the bacterium Helicobacter pylori. For the respective strains, in vitro tests were performed in Columbia agar medium. Each of the specimens was dissolved in a 1% DMSO solution. The bacteria were cultured at 37° C. and pH 7.0 for 3 days, and on the 4th day, the minimum growth inhibitory concentration (MIC, μg/ml) was determined.

The test system of assay [7] is Escherichia coli (ATCC 25922). Nature of the assay: Antibacterial test (MIC), Gram-negative bacteria. The class given is cell-based.
Text: as §1

Assay [8] concerns Proteus vulgaris (ATCC 13315). Nature of the assay: Antibacterial test (MIC), Gram-negative bacteria. It counts as cell-based.
Text: as §1

In assay [9] the test system is Pseudomonas aeruginosa (ATCC 9027). Nature of the assay: Antibacterial test (MIC), Gram-negative bacteria. The class given is cell-based.
Text: as §1

For assay [10], the system named is Salmonella typhimurium (ATCC 13311). Nature of the assay: Antibacterial test (MIC), Gram-negative bacteria. The class given is cell-based.
Text: as §1

Assay [11] deals with Escherichia coli (ATCC 10536). Nature of the assay: Antibacterial test (MIC), Gram-negative bacteria. The class given is cell-based.
Text: as §1

The test system of assay [12] is Staphylococcus epidermidis (ATCC 12228). Nature of the assay: Antibacterial test (MIC), Gram-positive bacteria. It counts as cell-based.
Text: as §1

Assay [13] has as its system Mycobacterium ranae (ATCC 110). Nature of the assay: Antibacterial test (MIC), Gram-positive bacteria. The class given is cell-based.
Text: as §1

Assay [14] relates to Klebsiella pneumonia (ATCC 10031). Nature of the assay: Antibacterial test (MIC), Gram-negative bacteria. The class given is cell-based.
Text: as §1

Where [15] appears, read: Clinically separated strain PT1045482.
Where [16] appears, read: Clinically separated strain PT1045483.
The mark [17] stands for this setting: Clinically separated strain PT1045484.
[18] abbreviates: Helicobacter pylori, AMO-insensitive strain NO. 4, read-out: MIC.
[19] abbreviates: Helicobacter pylori, CAM-resistant strain NO. 1, read-out: MIC.
Setting [20] is: Helicobacter pylori, CAM-resistant strain NO. 2, read-out: MIC.
[21] abbreviates: Helicobacter pylori, CAM-resistant strain NO. 3, read-out: MIC.
Setting [22] is: Helicobacter pylori, CAM-resistant strain NO. 4, read-out: MIC.
[23] abbreviates: Salmonella enterica, read-out: MIC.

Data on three molecules can be found in patent publication US8778975B2, “Helicobacter pylori eradicating agent having inhibitory activity on gastric acid secretion” (Link Geonomics, Inc., priority 2006, dated 2014).

Converted amounts (≈) assume the structure as drawn. Where two headings read alike, the source gives them in different places. A value given as a limit tells only on which side of the number the result lay.

As to `CC1(C)S[C@@H]2[C@H](NC(=O)[C@H](N)c3ccc(O)cc3)C(=O)N2[C@H]1C(=O)O` [AMPC, Amoxicillin], the MIC in assay [1] (setting [15]) was 0.06 µg/mL (≈ 0.164 µM); in assay [1] (setting [16]) it was 0.06 µg/mL (≈ 0.164 µM); in [1] (setting [17]) it was 0.06 µg/mL (≈ 0.164 µM); in assay [1] (Standard strain ATCC 43504) it was 0.06 µg/mL (≈ 0.164 µM); in assay [1] (Standard strain ATCC 43570), less than 0.015 µg/mL; in assay [1] (Standard strain ATCC 43629), 0.06 µg/mL (≈ 0.164 µM). In addition, the MIC was 0.1 µg/mL (≈ 0.274 µM) in [3] (read-out: MIC); 0.01 µg/mL (≈ 0.0274 µM) in [4]; 0.3 µg/mL (≈ 0.821 µM) in assay [5]; 0.25 µg/mL (≈ 0.684 µM) in assay [6] (AMO-insensitive strain NO. 2); 0.25 µg/mL (≈ 0.684 µM) in assay [6] (AMO-insensitive strain NO. 3); 0.25 µg/mL (≈ 0.684 µM) in assay [6] (Helicobacter pylori). In addition, the MIC in [6] (setting [18]) is 0.12 µg/mL (≈ 0.328 µM); in [6] (setting [19]), less than 0.015 µg/mL; in assay [6] (setting [20]), less than 0.015 µg/mL; in [6] (setting [21]), less than 0.015 µg/mL; in assay [6] (setting [22]), less than 0.015 µg/mL; in [7] (ATCC25922, read-out: MIC), 6.25 µg/mL (≈ 17.1 µM). Besides, the MIC is 6.25 µg/mL (≈ 17.1 µM) in [8] (ATCC13315, read-out: MIC); greater than 100 µg/mL in assay [9] (ATCC9027, read-out: MIC); 0.3 µg/mL (≈ 0.821 µM) in [10] (setting [23]); 6.25 µg/mL (≈ 17.1 µM) in [11] (ATCC10536, read-out: MIC). The “Antibody titer (average)” value in assay [2] (10 mg/kg) was 0.40. Moreover, the “Number of Bacteria (average) (log CFU)” value in assay [2] (10 mg/kg) is on record as 5.0 log CFU. For the same molecule, in assay [2] (10 mg/kg, two times a day for two weeks), the “Number of Ulcers discovered” value was 4/5. The responders at 10 mg/kg in assay [2] (Helicobacter pylori, ATCC43504, 336 h, 10 mg/kg, two times a day for two weeks, read-out: Eradication rate (%)) was determined as 20%.

As to `CC[C@H]1OC(=O)[C@H](C)[C@@H](O[C@H]2C[C@@](C)(OC)[C@@H](O)[C@H](C)O2)[C@H](C)[C@@H](O[C@@H]2O[C@H](C)C[C@H](N(C)C)[C@H]2O)[C@](C)(OC)C[C@@H](C)C(=O)[C@H](C)[C@@H](O)[C@]1(C)O` [CAM, Clarithromycin], the MIC is 0.3 µg/mL (≈ 0.401 µM) in assay [1] (setting [15]); 0.3 µg/mL (≈ 0.401 µM) in assay [1] (setting [16]); 0.3 µg/mL (≈ 0.401 µM) in [1] (setting [17]); 0.1 µg/mL (≈ 0.134 µM) in assay [1] (Standard strain ATCC 43504); less than 0.015 µg/mL in assay [1] (Standard strain ATCC 43570); 0.1 µg/mL (≈ 0.134 µM) in assay [1] (Standard strain ATCC 43629). Further, the MIC turned out to be 0.1 µg/mL (≈ 0.134 µM) in assay [3] (read-out: MIC); 0.02 µg/mL (≈ 0.0267 µM) in assay [4]; 0.1 µg/mL (≈ 0.134 µM) in assay [5]; 0.06 µg/mL (≈ 0.0802 µM) in assay [6] (Helicobacter pylori, AMO-insensitive strain NO. 1, read-out: MIC); 0.03 µg/mL (≈ 0.0401 µM) in [6] (Helicobacter pylori, AMO-insensitive strain NO. 2, read-out: MIC); 0.06 µg/mL (≈ 0.0802 µM) in assay [6] (Helicobacter pylori, AMO-insensitive strain NO. 3, read-out: MIC). The minimal inhibitory concentration (MIC) was found to be 0.03 µg/mL (≈ 0.0401 µM) in assay [6] (setting [18]); 32 µg/mL (≈ 42.8 µM) in assay [6] (setting [19]); 8 µg/mL (≈ 10.7 µM) in assay [6] (setting [20]); 64 µg/mL (≈ 85.6 µM) in assay [6] (setting [21]); 32 µg/mL (≈ 42.8 µM) in assay [6] (setting [22]); 50 µg/mL (≈ 66.8 µM) in assay [7] (ATCC25922, read-out: MIC). For the same molecule, the MIC is 100 µg/mL (≈ 134 µM) in assay [8] (ATCC13315, read-out: MIC); greater than 100 µg/mL in assay [9] (ATCC9027, read-out: MIC); 25 µg/mL (≈ 33.4 µM) in assay [10] (setting [23]); 50 µg/mL (≈ 66.8 µM) in assay [11] (ATCC10536, read-out: MIC). The “Antibody titer (average)” value in assay [2] (30 mg/kg) is reported as 0.35. Further, in assay [2] (30 mg/kg), the “Number of Bacteria (average) (log CFU)” value stood at 5.2 log CFU. Moreover, the “Number of Ulcers discovered” value in assay [2] (30 mg/kg, two times a day for two weeks) was 4/5. In [2] (Helicobacter pylori, ATCC43504, 336 h, 30 mg/kg, two times a day for two weeks, read-out: Eradication rate (%)), the responders at 30 mg/kg is 20%.

As to Gentamycin [GEM], the MIC in [3] turned out to be 1.0 µg/mL; in assay [12], 0.1 µg/mL; in assay [13], 0.3 µg/mL; in assay [7] it was 1.0 µg/mL; in [8], 0.3 µg/mL; in [9] it was 0.3 µg/mL. Moreover, the results for the minimum inhibitory concentration (MIC) in assay [10], in assay [11] and in [14] were 1.0 µg/mL, 0.3 µg/mL and 1.0 µg/mL, respectively.

Broadly, the MIC is the smallest concentration in the dilution series that meets the test's criterion for growth inhibition.
